# In patent publication US20230119894A1, “THERAPEUTIC OR PROPHYLACTIC METHOD FOR DIABETES USING COMBINATION MEDICINE” (Japan Tobacco Inc., priority 2019, published 2023):
# Marks after values point to notes of the source that are not given here.
# What was measured:
# [1] = test system: Salmonella typhimurium TA100; assay: Ames test (reverse mutation test), TA100; conditions: for Number of revertant colonies: TA100; for Number of revertant colonies TA100: S9 Mix +, mean number of each plate
# Description: (§1) Metabolites 1, 3, and 5 and Metabolites C to H were each tested herein. The purpose of this test is to evaluate the potential of each metabolite to induce reverse mutations in the standard strains of Salmonella typhimurium (TA98, TA1537, TA100, and TA1535) and Escherichia coli (WP2uvrA), in either the presence or absence of a rat liver metabolic activation system (S9 mix).
# (§2) The solvent used herein was dimethyl sulfoxide (DMSO, 100 μL/plate).
# (§3) The test was performed by the pre-incubation method with or without S9 mix. When the test was performed without S9 mix, sodium phosphate buffer solution (pH 7.4) was added.
# (§4) 0.5 mL of S9 mix or 0.5 mL of 0.1 mol/L sodium phosphate buffer solution (pH 7.4), and 0.1 mL of the bacterial culture solution were added to a test tube containing 0.1 mL of the negative control formulation (DMSO alone), the metabolite, or the positive control formulation. The mixtures were pre-incubated at 37° C. for 20 minutes while shaking. After the pre-incubation period, 2 mL of top agar were added and the mixtures were vortex-mixed and seeded onto plates. Two plates per treatment were used. Each plate was incubated at 37±1° C. for 48 hours or more and the revertant colonies were counted. The mean number of revertant colonies for each treatment plate was then calculated. […] Evaluation was based on mean values with no statistical comparisons being used.
# [2] = test system: Salmonella typhimurium TA98; assay: Ames test (reverse mutation test), TA98; conditions: for Number of revertant colonies: TA98; for Number of revertant colonies TA98: S9 Mix +, mean number of each plate
# Description: as §1, §2, §3, §4
# Escherichia coli WP2uvrA = assay: Ames test (reverse mutation test), WP2uvrA; assay type: cell-based; conditions: for Number of revertant colonies: WP2uvrA; for Number of revertant colonies WP2uvrA: S9 Mix +, mean number of each plate
# [3] = test system: Salmonella typhimurium TA1535; assay: Ames test (reverse mutation test), TA1535
# Description: as §1, §2, §3, §4
# [4] = test system: Salmonella typhimurium TA1537; assay: Ames test (reverse mutation test), TA1537; conditions: for Number of revertant colonies: TA1537; for Number of revertant colonies TA1537: S9 Mix +, mean number of each plate
# Description: as §1, §2, §3, §4
smiles,measurement,setting,value
Nc1cc(-c2cc(F)cc(OC(F)(F)F)c2)n(-c2cncc(F)c2)n1 [Metabolite 3],Number of revertant colonies,"[1]; S9 mix +, 6.9 μg/plate",109
same,Number of revertant colonies,"[1]; S9 mix +, 21 μg/plate",119
same,Number of revertant colonies,"[1]; S9 mix +, 62 μg/plate",118
same,Number of revertant colonies,"[1]; S9 mix +, 185 μg/plate",125
same,Number of revertant colonies,"[1]; S9 mix +, 556 μg/plate",115*†
same,Number of revertant colonies,"[1]; S9 mix +, 1667 μg/plate",97*†
same,Number of revertant colonies,"[1]; S9 mix +, 5000 μg/plate",92*†
same,Number of revertant colonies,"[1]; S9 mix −, 6.9 μg/plate",89
same,Number of revertant colonies,"[1]; S9 mix −, 21 μg/plate",90
same,Number of revertant colonies,"[1]; S9 mix −, 62 μg/plate",87
same,Number of revertant colonies,"[1]; S9 mix −, 185 μg/plate",86
same,Number of revertant colonies,"[1]; S9 mix −, 556 μg/plate",6*
same,Number of revertant colonies,"[1]; S9 mix −, 1667 μg/plate",5*†
same,Number of revertant colonies,"[1]; S9 mix −, 5000 μg/plate",5*†
same,Number of revertant colonies,"[2]; S9 mix +, 6.9 μg/plate",35
same,Number of revertant colonies,"[2]; S9 mix +, 21 μg/plate",37
same,Number of revertant colonies,"[2]; S9 mix +, 62 μg/plate",35
same,Number of revertant colonies,"[2]; S9 mix +, 185 μg/plate",36
same,Number of revertant colonies,"[2]; S9 mix +, 556 μg/plate",22*
same,Number of revertant colonies,"[2]; S9 mix +, 1667 μg/plate",20*†
same,Number of revertant colonies,"[2]; S9 mix +, 5000 μg/plate",16*†
same,Number of revertant colonies,"[2]; S9 mix −, 6.9 μg/plate",30
same,Number of revertant colonies,"[2]; S9 mix −, 21 μg/plate",30
same,Number of revertant colonies,"[2]; S9 mix −, 62 μg/plate",28
same,Number of revertant colonies,"[2]; S9 mix −, 185 μg/plate",28
same,Number of revertant colonies,"[2]; S9 mix −, 556 μg/plate",12*
same,Number of revertant colonies,"[2]; S9 mix −, 1667 μg/plate",9*†
same,Number of revertant colonies,"[2]; S9 mix −, 5000 μg/plate",7*†
same,Number of revertant colonies,"Escherichia coli WP2uvrA; S9 mix +, 6.9 μg/plate",19
same,Number of revertant colonies,"Escherichia coli WP2uvrA; S9 mix +, 21 μg/plate",19
same,Number of revertant colonies,"Escherichia coli WP2uvrA; S9 mix +, 62 μg/plate",19
same,Number of revertant colonies,"Escherichia coli WP2uvrA; S9 mix +, 185 μg/plate",19
same,Number of revertant colonies,"Escherichia coli WP2uvrA; S9 mix +, 556 μg/plate",17*
same,Number of revertant colonies,"Escherichia coli WP2uvrA; S9 mix +, 1667 μg/plate",14*†
same,Number of revertant colonies,"Escherichia coli WP2uvrA; S9 mix +, 5000 μg/plate",9*†
same,Number of revertant colonies,"Escherichia coli WP2uvrA; S9 mix −, 6.9 μg/plate",21
same,Number of revertant colonies,"Escherichia coli WP2uvrA; S9 mix −, 21 μg/plate",16
same,Number of revertant colonies,"Escherichia coli WP2uvrA; S9 mix −, 62 μg/plate",23
same,Number of revertant colonies,"Escherichia coli WP2uvrA; S9 mix −, 185 μg/plate",20
same,Number of revertant colonies,"Escherichia coli WP2uvrA; S9 mix −, 556 μg/plate",16*
same,Number of revertant colonies,"Escherichia coli WP2uvrA; S9 mix −, 1667 μg/plate",13*†
same,Number of revertant colonies,"Escherichia coli WP2uvrA; S9 mix −, 5000 μg/plate",8*†
same,Number of revertant colonies,"[3]; S9 mix +, 6.9 μg/plate",8
same,Number of revertant colonies,"[3]; S9 mix +, 21 μg/plate",9
same,Number of revertant colonies,"[3]; S9 mix +, 62 μg/plate",11
same,Number of revertant colonies,"[3]; S9 mix +, 185 μg/plate",9
same,Number of revertant colonies,"[3]; S9 mix +, 556 μg/plate",4*
same,Number of revertant colonies,"[3]; S9 mix +, 1667 μg/plate",3*†
same,Number of revertant colonies,"[3]; S9 mix +, 5000 μg/plate",1*†
same,Number of revertant colonies,"[3]; S9 mix −, 6.9 μg/plate",9
same,Number of revertant colonies,"[3]; S9 mix −, 21 μg/plate",11
same,Number of revertant colonies,"[3]; S9 mix −, 62 μg/plate",10
same,Number of revertant colonies,"[3]; S9 mix −, 185 μg/plate",8
same,Number of revertant colonies,"[3]; S9 mix −, 556 μg/plate",8*
same,Number of revertant colonies,"[3]; S9 mix −, 1667 μg/plate",0*†
same,Number of revertant colonies,"[3]; S9 mix −, 5000 μg/plate",0*†
same,Number of revertant colonies,"[4]; S9 mix +, 6.9 μg/plate",12
same,Number of revertant colonies,"[4]; S9 mix +, 21 μg/plate",13
same,Number of revertant colonies,"[4]; S9 mix +, 62 μg/plate",12
same,Number of revertant colonies,"[4]; S9 mix +, 185 μg/plate",12
same,Number of revertant colonies,"[4]; S9 mix +, 556 μg/plate",8*
same,Number of revertant colonies,"[4]; S9 mix +, 1667 μg/plate",0*†
same,Number of revertant colonies,"[4]; S9 mix +, 5000 μg/plate",1*†
same,Number of revertant colonies,"[4]; S9 mix −, 6.9 μg/plate",9
same,Number of revertant colonies,"[4]; S9 mix −, 21 μg/plate",8
same,Number of revertant colonies,"[4]; S9 mix −, 62 μg/plate",8
same,Number of revertant colonies,"[4]; S9 mix −, 185 μg/plate",8
same,Number of revertant colonies,"[4]; S9 mix −, 556 μg/plate",3*
same,Number of revertant colonies,"[4]; S9 mix −, 1667 μg/plate",3*†
same,Number of revertant colonies,"[4]; S9 mix −, 5000 μg/plate",2*†
Nc1cc(-c2cc(F)cc(OC(F)(F)F)c2)n(-c2cncc(C(F)(F)F)c2)n1 [Metabolite 5],Number of revertant colonies,"[3]; S9 mix +, 185 μg/plate",9
same,Number of revertant colonies,"[3]; S9 mix −, 6.9 μg/plate",9
same,Number of revertant colonies,"[3]; S9 mix −, 556 μg/plate",6
"CC(C)(OCc1cc(F)cc(-c2cc(N)nn2-c2ccc(F)cc2)c1)C(F)(F)F [Metabolite D, reference compound]",Number of revertant colonies TA100,[1]; dose 2.3 μg/plate,139
same,Number of revertant colonies TA100,[1]; dose 6.9 μg/plate,203
same,Number of revertant colonies TA100,[1]; dose 21 μg/plate,237
same,Number of revertant colonies TA100,[1]; dose 62 μg/plate,185
same,Number of revertant colonies TA100,[1]; dose 185 μg/plate,151
same,Number of revertant colonies TA100,[1]; dose 556 μg/plate,119
same,Number of revertant colonies TA100,[1]; dose 1667 μg/plate,100
same,Number of revertant colonies TA98,[2]; dose 2.3 μg/plate,39
same,Number of revertant colonies TA98,[2]; dose 6.9 μg/plate,42
same,Number of revertant colonies TA98,[2]; dose 21 μg/plate,52
same,Number of revertant colonies TA98,[2]; dose 62 μg/plate,47
same,Number of revertant colonies TA98,[2]; dose 185 μg/plate,49
same,Number of revertant colonies TA98,[2]; dose 556 μg/plate,51
same,Number of revertant colonies TA98,[2]; dose 1667 μg/plate,57
same,Number of revertant colonies TA98,[2]; dose 5000 μg/plate,88
same,Number of revertant colonies WP2uvrA,Escherichia coli WP2uvrA; dose 2.3 μg/plate,31
same,Number of revertant colonies WP2uvrA,Escherichia coli WP2uvrA; dose 21 μg/plate,24
same,Number of revertant colonies WP2uvrA,Escherichia coli WP2uvrA; dose 185 μg/plate,23
same,Number of revertant colonies WP2uvrA,Escherichia coli WP2uvrA; dose 556 μg/plate,32
same,Number of revertant colonies WP2uvrA,Escherichia coli WP2uvrA; dose 1667 μg/plate,28
same,Number of revertant colonies WP2uvrA,Escherichia coli WP2uvrA; dose 5000 μg/plate,28
same,Number of revertant colonies TA1537,[4]; dose 2.3 μg/plate,14
same,Number of revertant colonies TA1537,[4]; dose 6.9 μg/plate,20
same,Number of revertant colonies TA1537,[4]; dose 62 μg/plate,18
same,Number of revertant colonies TA1537,[4]; dose 185 μg/plate,15
same,Number of revertant colonies TA1537,[4]; dose 556 μg/plate,15
same,Number of revertant colonies TA1537,[4]; dose 1667 μg/plate,19
same,Number of revertant colonies TA1537,[4]; dose 5000 μg/plate,24
